Data on nine molecules can be found in patent US20260115250A1, “METHODS OF TREATING AGE-RELATED MACULAR DEGENERATION” (Character Biosciences, Inc., priority 2022, published 2026).

Peptide text beside a SMILES is read from it.

The nature of series [1]: DMPC solubility assay, 0.5 mM DMPC (turbidity reduction). In kind it is biochemical. Conditions: FIGS. 2A-2D and 3A-3C. On the procedure:
In this example, peptide stocks were diluted to 200 μM in H2O (a 2× solution) and 50 μL of peptide solution was transferred in triplicate into 96-well plates. A one mM solution of 1,2-dimyristoyl-sn-glycero-3-phosphocholine (DMPC) in H2O was prepared, and using a multichannel pipet, 50 μL DMPC solution was rapidly added to the plate. Peptide and lipid solutions were incubated at room temperature for 15 minutes with a final concentration of 100 μM peptides and 0.5 mM DMPC. After 15 minutes, absorbance was read on a plate reader at 405 nm. […] Data are presented as mean+SD over two runs.
In these experiments, DMPC solubility titration curves were generated. Peptide stocks were diluted to 200 μM in H2O (a 2× solution) and serially diluted in H2O over 4 concentrations, then 50 μL of peptide solutions were distributed in triplicate into 96-well plates. A 1 mM solution of 1,2-dimyristoyl-sn-glycero-3-phosphocholine (DMPC) in H2O was prepared, and using a multichannel pipet, 50 μL DMPC solution was rapidly added to the plate. Peptide and lipid solutions were incubated at room temperature for 15 minutes with final concentrations of 3.16-100 μM peptides and 0.5 mM DMPC. After 15 minutes, absorbance was read on a plate reader at 405 nm. […] Data are presented as mean+SD over two runs. Non-linear regression was used to calculate EC50 values.

Series [2] has as its target T1, LDLR (Homo sapiens, UniProt P01130). Nature of the series: lipid-dependent LDLR binding (SPR), single concentration. The conditions noted are these: 1 μM peptide with or without 25 μM DMPC. On the procedure: Peptides were diluted in 1×HBS-N buffer with 1 mM CaCl2 to a final concentration of 1 μM and incubated with or without 25 μM DMPC for 1 hour at RT to form lipid complexes. Each peptide was tested in duplicate. LDLR was diluted to 10 μg/mL in 10 mM acetate buffer pH 4.5 and was immobilized (˜400RU) on a CM5 chip via amine coupling utilizing 1×HBS-P+ buffer with 1 mM CaCl2. Test peptides (with or without DMPC) were exposed to immobilized LDLR at a flow rate of […] for 120 seconds in HBS-N with 1 mM CaCl2. Between cycles the surface was regenerated with 3, 30 second injections of 10 mM NaOH and 100 mM EDTA. Data are plotted as max RU values, averaged from three separate runs.
Target sequence in this assay (P01130 22-860): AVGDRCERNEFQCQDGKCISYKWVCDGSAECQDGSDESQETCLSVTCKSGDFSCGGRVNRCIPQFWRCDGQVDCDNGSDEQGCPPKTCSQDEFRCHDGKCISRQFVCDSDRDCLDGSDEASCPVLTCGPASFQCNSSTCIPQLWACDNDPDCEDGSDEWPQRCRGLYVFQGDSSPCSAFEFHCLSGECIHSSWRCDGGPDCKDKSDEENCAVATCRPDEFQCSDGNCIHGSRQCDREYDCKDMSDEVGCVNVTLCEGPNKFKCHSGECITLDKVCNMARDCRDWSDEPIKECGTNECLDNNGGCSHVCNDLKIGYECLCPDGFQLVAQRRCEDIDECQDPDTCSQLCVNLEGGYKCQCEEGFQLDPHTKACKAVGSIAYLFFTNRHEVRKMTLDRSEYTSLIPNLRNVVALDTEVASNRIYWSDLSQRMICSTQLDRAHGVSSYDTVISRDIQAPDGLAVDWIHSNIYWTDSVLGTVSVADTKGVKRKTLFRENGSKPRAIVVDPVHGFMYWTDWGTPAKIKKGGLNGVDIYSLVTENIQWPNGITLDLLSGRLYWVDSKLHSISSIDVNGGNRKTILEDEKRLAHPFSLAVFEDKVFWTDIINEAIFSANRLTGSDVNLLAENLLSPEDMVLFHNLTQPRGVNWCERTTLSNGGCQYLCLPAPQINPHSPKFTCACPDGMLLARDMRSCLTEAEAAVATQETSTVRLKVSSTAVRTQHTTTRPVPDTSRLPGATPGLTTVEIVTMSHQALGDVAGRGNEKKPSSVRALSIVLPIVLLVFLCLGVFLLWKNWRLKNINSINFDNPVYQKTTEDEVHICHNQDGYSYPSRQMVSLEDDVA

The nature of series [3]: peptide binding to non-oxidized and oxidized lipids (SPR). The conditions noted are these: immobilized peptide; RU normalized to DMPC. On the procedure: FIGS. 25A-25O show peptide binding activity to non-oxidized and oxidized lipids via SPR for indicated peptides. Peptides were reconstituted to 50 μg/mL in 10 mM acetate buffer, pH 4.5 and immobilized to ˜200 RU on a CM5 chip via amine coupling. Non-oxidized lipids (DMPC & POPC) and oxidized lipids (POVPC & KOdiA-PC) were diluted to 100 µM in HBS-EP running buffer and exposed to the chip for binding (n=3) at a flow rate of […] for 120 seconds. The surface was regenerated with 20% EtOH. T-001 served as a positive control and T-031 served as a negative control on each chip. For each peptide, the RU response for all lipids was normalized to the DMPC RU values.

The test system of series [4] is C57BL/6J mice. Briefly: tolerability testing in mice after intravitreal injection (H&E histopathology). Format: in vivo, mouse. The conditions noted are these: IVT, 520 μM, seven days. The source says:
Seven days following IVT injection, eyes were harvested and prepared for hematoxylin and eosin staining. A blinded veterinarian performed histopathological analysis of tissue slices to determine whether the peptides induced inflammation or retinal disruption.

The target in series [5] is T1, LDLR. Nature of the series: KD, Peptide (μM).
Target sequence in this assay (P01130 22-860 limits assumed): as the sequence (P01130 22-860) above
Description: Title: Buffer: HBS + 0.005% P20
Head of the field: KD, Peptide (μM)
First copying reader's note: KD values are for binding to LDLR by SPR, peptide alone versus peptide:DMPC lipid complex; the table continues on FIG. 24B.
Series [6] has as its target T1, LDLR. Briefly: KD (µM). The source says: First copying reader's note: Left of three side-by-side panels of FIG. 23; the KD cells hold value ± error together. Where the first naming reader finds the target: description_of_the_figure: FIG. 23 is a table showing the binding kinetics results of LDLR binding assays (SPR)
Target sequence in this assay (P01130 22-860 limits assumed): as the sequence (P01130 22-860) above
In series [7] the test system is ARPE-19 cells. Nature of the series: ARPE-19 cell lysis (Sytox Green). Format: cell-based, human. Conditions: 10 μM peptide, 2 h. On the procedure:
These figures illustrate ARPE-19 cell lysis. ARPE-19 cells were grown in 96-well plates to 75-85% confluence. Peptides at 10 mM were diluted in serum-free DMEM:F12 media into a 20 μM working solution (a 2× solution). Sytox Green was prepared in serum-free DMEM:F12 at a 1 μM working solution (a 2× solution). Equivalent volumes of the peptide and Sytox Green solutions were added to empty 96-well plates and mixed gently. Final peptide concentration was 10 μM. ARPE-19 cells (˜80% confluent in 96-well plates) were washed with DPBS and then incubated in 100 μL of peptide/Sytox Green mixture for 2 h at 37° C. Cells were fixed in 4% paraformaldehyde solution in DPBS and then incubated in 10 μM Hoechst solution for 10 min, washed, and imaged on a Yokogawa CQ1 high-content imager. CellPathfinder software was used to count live/dead cells in 4 fields of view at 20× magnification. Percent (%) lysis was calculated by dividing the number of Sytox Green+ nuclei by the total number of Hoechst+ nuclei.
ARPE-19 cells were grown in 96-well plates to 75-85% confluence. Peptides at 10 mM were diluted in serum-free DMEM: F12 media to solutions between […]. Sytox Green was prepared in serum-free DMEM: F12 media at a 1 μM working solution. Equivalent volumes of the peptide and Sytox Green solutions were added to empty 96-well plates and mixed gently. Final peptide concentration was 3.16-100 μM. ARPE-19 cells (˜80% confluent in 96-well plates) were washed with DPBS and then incubated in 100 μL of peptide/Sytox Green mixture for 2 h at 37° C. Cells were fixed in 4% paraformaldehyde solution in DPBS and then incubated in 10 μM Hoechst solution for 10 min, washed, and imaged on a Yokogawa CQ1 high-content imager. CellPathfinder software was used to count live/dead cells in 4 fields of view at 20× magnification. Percent (%) lysis was calculated by dividing the number of Sytox Green+ nuclei by the total number of Hoechst+ nuclei. Non-linear regression was used to calculate EC50 values.

Turning to “T-009: therapeutic peptide (EELRVRLASHLRKLRKRLLRDADDLQKRLAVYQAGAREGAERGLSAIRER)”, the DMPC solubilizing activity result in series [1] was “significant activity”. The “lipid-dependent LDLR binding (RU with lipid vs peptide alone)” value in series [2] is recorded as “lipid-dependent LDLR binding activity”. Also, the “binding to oxidized lipids relative to DMPC” value in series [3] is “binding to at least one oxidized lipid that was equivalent or improved to binding against DMPC”.

With `CC[C@H](C)[C@H](NC(=O)[C@H](Cc1ccccc1)NC(=O)[C@H](CCCNC(=N)N)NC(=O)[C@H](CCCCN)NC(=O)[C@H](CC(C)C)NC(=O)[C@H](CCC(=O)O)NC(=O)[C@H](CCCCN)NC(=O)[C@H](CC(C)C)NC(=O)[C@H](C)NC(=O)[C@H](CO)NC(=O)[C@H](CCC(=O)O)NC(=O)[C@H](CC(C)C)NC(=O)[C@H](C)NC(=O)[C@H](CC(=O)O)NC(=O)[C@H](C)NC(=O)CNC(=O)[C@H](CO)NC(=O)[C@@H](N)CCCNC(=N)N)C(=O)N[C@@H](CCCNC(=N)N)C(=O)N[C@@H](CCC(=O)O)C(=O)N[C@@H](Cc1c[nH]c2ccccc12)C(=O)N[C@H](C(=O)O)[C@@H](C)O` [T-101] (H-RSGADALESALKELKRFIREWT-OH; N-terminus and C-terminus assumed), in series [4], the “in vivo tolerability (inflammation or retinal disruption)” value is “well tolerated”. On to “T-030: therapeutic peptide (EHLCELIERACRKLVELQEKLSKWLIAELGEGWRQWLHSLKEFLS)”, for which the DMPC solubilizing activity entry in series [1] is listed as “significant activity”. Also, the “binding to oxidized lipids relative to DMPC” value in series [3] was “binding to at least one oxidized lipid that was equivalent or improved to binding against DMPC”. Regarding “T-007: therapeutic peptide (EELRVRLASHLRKLRKRLLRDADDLQKRLAVYQA)”, the DMPC solubilizing activity result in series [1] was “significant activity”. For the same molecule, in series [2], the “lipid-dependent LDLR binding (RU with lipid vs peptide alone)” value was “lipid-dependent LDLR binding activity”.

Regarding “T-018: therapeutic peptide (HLRKLRKRLLRPPEQAQQIRLQAEAFQARLKSWFE)”, in series [1], the DMPC solubilizing activity result is on record as “significant activity”. In series [2], the “lipid-dependent LDLR binding (RU with lipid vs peptide alone)” value is “lipid-dependent LDLR binding activity”. For orientation: Kd means the free concentration of one partner at which half of the binding sites on the other are occupied at equilibrium, for simple one-to-one binding. For `CC(C)C[C@H](NC(=O)[C@H](CCCNC(=N)N)NC(=O)[C@H](CCCCN)NC(=O)[C@H](CCC(N)=O)NC(=O)[C@H](CC(C)C)NC(=O)[C@H](CC(=O)O)NC(=O)[C@H](CC(=O)O)NC(=O)[C@H](C)NC(=O)[C@H](CC(=O)O)NC(=O)[C@H](CCCNC(=N)N)NC(=O)[C@H](CC(C)C)NC(=O)[C@H](CC(C)C)NC(=O)[C@H](CCCNC(=N)N)NC(=O)[C@H](CCCCN)NC(=O)[C@H](CCCNC(=N)N)NC(=O)[C@H](CC(C)C)NC(=O)[C@H](CCCCN)NC(=O)[C@H](CCCNC(=N)N)NC(=O)[C@H](CC(C)C)NC(=O)[C@@H](N)Cc1c[nH]cn1)C(=O)N[C@@H](C)C(=O)N[C@H](C(=O)N[C@@H](Cc1ccc(O)cc1)C(=O)N[C@@H](CCC(N)=O)C(=O)N[C@@H](C)C(=O)O)C(C)C` [T-045] (H-HLRKLRKRLLRDADDLQKRLAVYQA-OH; N-terminus and C-terminus assumed), the Kd in series [5] stood at 11.8 ± 1.25 mM; in series [6], 0.0712 ± 0.0318 mM.

Turning to `CC(C)C[C@H](NC(=O)[C@H](CC(C)C)NC(=O)[C@H](CCCNC(=N)N)NC(=O)[C@H](CCCCN)NC(=O)[C@H](CCCNC(=N)N)NC(=O)[C@H](CC(C)C)NC(=O)[C@H](CCCCN)NC(=O)[C@H](CCCNC(=N)N)NC(=O)[C@H](CC(C)C)NC(=O)[C@@H](N)Cc1c[nH]cn1)C(=O)N[C@@H](CCCNC(=N)N)C(=O)N[C@@H](CC(=O)O)C(=O)N[C@@H](Cc1c[nH]c2ccccc12)C(=O)N[C@@H](Cc1ccccc1)C(=O)N[C@@H](CCCCN)C(=O)N[C@@H](C)C(=O)N[C@@H](Cc1ccccc1)C(=O)N[C@@H](Cc1ccc(O)cc1)C(=O)N[C@@H](CC(=O)O)C(=O)N[C@@H](CCCCN)C(=O)N[C@H](C(=O)N[C@@H](C)C(=O)N[C@@H](CCC(=O)O)C(=O)N[C@@H](CCCCN)C(=O)N[C@@H](Cc1ccccc1)C(=O)N[C@@H](CCCCN)C(=O)N[C@@H](CCC(=O)O)C(=O)N[C@@H](C)C(=O)N[C@@H](Cc1ccccc1)C(=O)O)C(C)C` [T-021] (H-HLRKLRKRLLRDWFKAFYDKVAEKFKEAF-OH), the ARPE-19 cell lysis entry in series [7] is “induce cell lysis”. Still for that read-out and setting: as for `CC(C)C[C@H](NC(=O)[C@H](Cc1ccccc1)NC(=O)[C@H](CCC(=O)O)NC(=O)[C@H](CCC(=O)O)NC(=O)[C@H](CC(C)C)NC(=O)[C@H](CCC(N)=O)NC(=O)[C@H](CCCNC(=N)N)NC(=O)CNC(=O)[C@@H](NC(=O)[C@H](CC(C)C)NC(=O)[C@H](CCCNC(=N)N)NC(=O)[C@H](CC(C)C)NC(=O)[C@H](CC(C)C)NC(=O)[C@H](CCCNC(=N)N)NC(=O)[C@H](CCCCN)NC(=O)[C@H](CCCNC(=N)N)NC(=O)[C@H](CC(C)C)NC(=O)[C@H](CCCCN)NC(=O)[C@H](CCCNC(=N)N)NC(=O)[C@H](CC(C)C)NC(=O)[C@@H](N)Cc1c[nH]cn1)C(C)C)C(=O)O` [T-028] (H-HLRKLRKRLLRLVGRQLEEFL-OH), the entry is “induce cell lysis”. `CC[C@H](C)[C@H](NC(=O)CN)C(=O)N[C@@H](CCCCN)C(=O)N[C@@H](CCCCN)C(=O)N[C@@H](Cc1ccccc1)C(=O)N[C@@H](CC(C)C)C(=O)NCC(=O)N[C@@H](CO)C(=O)N[C@H](C(=O)N[C@@H](Cc1c[nH]c2ccccc12)C(=O)N[C@@H](CCCCN)C(=O)N[C@@H](Cc1ccccc1)C(=O)N[C@H](C(=O)N[C@@H](CCCCN)C(=O)N[C@@H](C)C(=O)N[C@@H](Cc1ccccc1)C(=O)N[C@H](C(=O)NCC(=O)O)C(C)C)[C@@H](C)CC)[C@@H](C)CC` [T-034, reference compound] (H-GIKKFLGSIWKFIKAFVG-OH): the ARPE-19 cell lysis result in series [7] is “induce cell lysis”.
